Data published in ChEMBL document CHEMBL5120831, “Pep5-based antitumor peptides containing multifunctional fragments with enhanced activity and synergistic effect” (Eur J Med Chem, 2022).
Numbered stars: 1 amine (or outer) side, 2 acyl side, 3 side chain; on linkers, the order of the positions; unused ones are H or OH. Bridge positions count the residues as written; N and C are the ends. Square brackets hold non-standard residues; d marks the D form. I, II: the chains in the order shown. X1 = O=C([C@H](Cc1c[nH]c2ccccc12)N(c1ccc([N+](=O)[O-])c2nonc12)[*:1])[*:2]

Experiments:
[1] = Drug uptake in human A549 cells at 15 uM measured after 1 hr by Hoechst 33258 staining based confocal laser scanning microscopy; type: ADME, cell-based; settings: a549, 1 h
[2] = Drug uptake in human HepG2 cells at 15 uM measured after 60 to 120 mins by Hoechst 33258/Lyso-Tracker Red staining based flow cytometry; type: ADME, cell-based; settings: hepg2, 15 µM, time 60-120 min
[3] = Drug uptake in human L02 cells at 15 uM measured after 1 hr by Hoechst 33258 staining based confocal laser scanning microscopy; type: ADME, cell-based; settings: l02, 1 h
[4] = Drug uptake in cytoplasm of human HepG2 cells at 15 uM measured after 60 mins by Hoechst 33258/Lyso-Tracker Red staining based flow cytometry; type: ADME, subcellular; settings: hepg2, 1 h
[5] = Drug uptake in human HepG2 cells at 15 uM measured after 1 hr by Hoechst 33258 staining based flow cyotmetry; type: ADME, cell-based; settings: hepg2, 1 h
[6] = Drug uptake in endosome of human HepG2 cells at 15 uM measured after 30 mins by Hoechst 33258/Lyso-Tracker Red staining based flow cytometry; type: ADME; settings: hepg2, 0.5 h
[7] = Drug uptake in human BEAS-2B cells at 15 uM measured after 1 hr by Hoechst 33258 staining based flow cyotmetry; type: ADME, cell-based
[8] = Drug uptake in human HepG2 cells at 15 uM measured after 1 hr by Hoechst 33258 staining based confocal laser scanning microscopy; type: ADME, cell-based; settings: hepg2, 1 h
[9] = Drug uptake in human HepG2 cells membrane at 15 uM measured after 15 mins by Hoechst 33258/Lyso-Tracker Red staining based flow cytometry; type: ADME, cell membranes, Cell membrane; settings: hepg2, 0.25 h
[10] = Drug uptake in human BEAS-2B cells at 15 uM measured after 1 hr by Hoechst 33258 staining based confocal laser scanning microscopy; type: ADME, cell-based
[11] = Drug uptake in human A549 cells at 15 uM measured after 1 hr by Hoechst 33258 staining based flow cyotmetry; type: ADME, cell-based; settings: a549, 1 h
[12] = Drug uptake in human L02 cells at 15 uM measured after 1 hr by Hoechst 33258 staining based flow cyotmetry; type: ADME, cell-based; settings: l02, 1 h

Measured: Drug uptake

I: H-[X1]ELVVLGKLLLHHLLHHLLHHGLRKRLRKFRNKIKEK / II: H-GLRKRLRKFRNKIKEK-NH2 (amide I:C-II:4)
Active: [1] | [2] | [3] | [4] | [5] | [6] | [7] | [8] | [9] | [10] | [11] | [12]
